The text below walks through data of patent publication US11426412B2, “Imidazo-pyridine compounds as PAD inhibitors” (JUBILANT EPIPAD LLC, priority 2017, dated 2022).

The target in the test is PAD4 (Homo sapiens (Human), UniProt Q9UM07). Nature of the test: Ammonia release biochemical assay (citrullination).
[1] abbreviates: read-out: NH3 release biochemical assay PAD4 IC50.
Setting [2] is: Table 1, class A, read-out: IC50 value, ammonia release biochemical assay.

Structures can show the parent of a compound that is named as a salt. Where two headings read alike, the source gives them in different places. Where only a bound is given, the exact number is not on record here.

Sequence of PAD4 (Q9UM07 whole entry): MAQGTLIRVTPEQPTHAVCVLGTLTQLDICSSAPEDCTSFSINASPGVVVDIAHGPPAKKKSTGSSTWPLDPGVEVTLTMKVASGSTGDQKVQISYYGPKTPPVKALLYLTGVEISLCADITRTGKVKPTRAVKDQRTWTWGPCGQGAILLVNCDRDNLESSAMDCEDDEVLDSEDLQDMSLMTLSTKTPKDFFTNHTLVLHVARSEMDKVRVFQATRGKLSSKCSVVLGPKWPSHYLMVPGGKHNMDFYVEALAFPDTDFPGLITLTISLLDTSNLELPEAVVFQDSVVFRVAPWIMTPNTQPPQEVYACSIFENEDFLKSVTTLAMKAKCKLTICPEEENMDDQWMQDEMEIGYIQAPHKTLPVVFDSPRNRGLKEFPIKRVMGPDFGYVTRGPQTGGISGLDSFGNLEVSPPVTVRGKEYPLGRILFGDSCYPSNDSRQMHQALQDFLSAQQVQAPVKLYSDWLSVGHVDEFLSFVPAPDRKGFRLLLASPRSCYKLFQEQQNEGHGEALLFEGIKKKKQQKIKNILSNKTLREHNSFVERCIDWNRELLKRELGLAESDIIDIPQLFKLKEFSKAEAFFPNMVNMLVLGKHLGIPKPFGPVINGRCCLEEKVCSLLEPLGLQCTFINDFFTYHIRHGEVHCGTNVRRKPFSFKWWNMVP
Protocol: Ammonia Release Biochemical Assay
Citrullination assay was detected via ammonia release. […] The reaction was stopped after 60 min by addition of stop/detection buffer containing 50 mM EDTA, 2.6 mM of o-phthaladehyde and 2.6 mM DTT.

Regarding `Cc1c(-c2cc3ccccc3n2Cc2ccoc2)nc2cc(C(=O)N3CCC[C@@H](N)C3)ccn12` [Compound 37, (R)-(3-aminopiperidin-1-yl)(2-(1-(furan-3-ylmethyl)-1H-indol-2-yl)-3-methylimidazo[1,2-a]pyridin-7-yl)methanone], the IC50 (commonly the midpoint of a concentration-inhibition curve) under setting [1] is below 1000 nM. The same measure, in the same setting: the figure for `Cc1c(-c2cc3ccccc3n2CC(C)C)nc2cc(C(=O)N3CCC[C@@H](N)C3)ccn12` [Compound 60, (R)-(3-aminopiperidin-1-yl)(2-(1-isobutyl-1H-indol-2-yl)-3-methylimidazo[1,2-a]pyridin-7-yl)methanone] is below 1000 nM. With `Cc1c(-c2cc3ccccc3n2Cc2cncnc2)nc2cc(C(=O)N3CCC[C@@H](N)C3)ccn12` [Compound 58, (R)-(3-aminopiperidin-1-yl) (3-methyl-2-(1-(pyrimidin-5-ylmethyl)-1H-indol-2-yl)imidazo[1,2-a]pyridin-7-yl)methanone Trifluoroacetic Acid Salt], the half-inhibitory concentration (IC50) was at most 1000 nM under setting [2] and below 1000 nM under setting [1]. Turning to `CCn1c(-c2nc3cc(C(=O)N4CCC[C@@H](N)C4)ccn3c2C)c(-c2ccccc2)c2ccccc21` [Compound 5, (R)-(3-Aminopiperidin-1-yl)(2-(1-ethyl-3-phenyl-1H-indol-2-yl)-3-methylimidazo[1,2-a]pyridin-7-yl)methanone], under setting [1], the concentration for half-maximal inhibition (IC50) is above 10000 nM. On the same count and under the same terms, for `COc1ccc2cc(-c3nc4cc(C(=O)N5CCC[C@@H](N)C5)ccn4c3C)n(Cc3ccncc3)c2c1` [Compound 66, (R)-(3-aminopiperidin-1-yl)(2-(6-methoxy-1-(pyridin-4-ylmethyl)-1H-indol-2-yl)-3-methylimidazo[1,2-a]pyridin-7-yl)methanone] the value was above 10000 nM. For `Cc1c(-c2cc3ccc(F)cc3n2Cc2ccncc2)nc2cc(C(=O)N3CCC[C@@H](N)C3)ccn12` [Compound 68, (R)-(3-aminopiperidin-1-yl)(2-(6-fluoro-1-(pyridin-4-ylmethyl)-1H-indol-2-yl)-3-methylimidazo[1,2-a]pyridin-7-yl)methanone], under setting [1], the IC50 was below 1000 nM. With `CCn1c(-c2nc3cc(C(=O)N4CC[C@@H](N)C4)ccn3c2C)cc2ccccc21` [Compound 7, (R)-(3-Aminopyrrolidin-1-yl)(2-(1-ethyl-1H-indol-2-yl)-3-methylimidazo[1,2-a]pyridin-7-yl)methanone], the half-maximal inhibitory concentration (IC50) under setting [1] was above 10000 nM. The same measure, in the same setting: for `COCCn1c(-c2nc3cc(C(=O)N4CCC[C@@H](N)C4)ccn3c2C)cc2ccccc21` [Compound 64, (R)-(3-aminopiperidin-1-yl) (2-(1-(2-methoxyethyl)-1H-indol-2-yl)-3-methylimidazo[1,2-a]pyridin-7-yl)methanone] the value was below 1000 nM. Still for that read-out and setting: the figure for `Cc1c(-c2cc3cc(F)ccc3n2Cc2ccc(F)cc2)nc2cc(C(=O)N3CCC[C@@H](N)C3)ccn12` [Compound 76, (R)-(3-aminopiperidin-1-yl)(2-(5-fluoro-1-(4-fluorobenzyl)-1H-indol-2-yl)-3-methylimidazo[1,2-a]pyridin-7-yl)methanone] is below 1000 nM. Same read-out and setting: the figure for `COc1cccc(Cn2c(-c3nc4cc(C(=O)N5CCC[C@@H](N)C5)ccn4c3C)cc3cc(F)ccc32)c1` [Compound 53, (R)-(3-aminopiperidin-1-yl)(2-(5-fluoro-1-(3-methoxybenzyl)-1H-indol-2-yl)-3-methylimidazo[1,2-a]pyridin-7-yl)methanone] is below 1000 nM; for `CCn1c(-c2nc3cc(C(=O)N4CC[C@@H](N)C4)ccn3c2C)c(-c2ccccc2)c2ccccc21` [Compound 6, (R)-(3-Aminopyrrolidin-1-yl)(2-(1-ethyl-3-phenyl-1H-indol-2-yl)-3-methylimidazo[1,2-a]pyridin-7-yl)methanone] it is above 10000 nM. For the molecule `Cc1c(-c2cc3ccc(F)cc3n2Cc2cccnc2)nc2cc(C(=O)N3CCC[C@@H](N)C3)ccn12` [Compound 69, (R)-(3-aminopiperidin-1-yl)(2-(6-fluoro-1-(pyridin-3-ylmethyl)-1H-indol-2-yl)-3-methylimidazo[1,2-a]pyridin-7-yl)methanone], the IC50 under setting [1] was below 1000 nM. Still for that read-out and setting: for `Cc1c(-c2cc3cc(F)ccc3n2Cc2ccncc2)nc2cc(C(=O)N3CCC[C@@H](N)C3)ccn12` [Compound 74, (R)-(3-aminopiperidin-1-yl)(2-(5-fluoro-1-(pyridin-4-ylmethyl)-1H-indol-2-yl)-3-methylimidazo[1,2-a]pyridin-7-yl)methanone] the value was below 1000 nM. On the same count and under the same terms, the figure for `Cc1c(-c2cc3ccc(F)cc3n2CC(C)C)nc2cc(C(=O)N3CCC[C@@H](N)C3)ccn12` [Compound 73, (R)-(3-aminopiperidin-1-yl)(2-(6-fluoro-1-isobutyl-1H-indol-2-yl)-3-methylimidazo[1,2-a]pyridin-7-yl)methanone] is below 1000 nM; for `Cc1c(-c2cc3ccccc3n2Cc2ncccc2F)nc2cc(C(=O)N3CCC[C@@H](N)C3)ccn12` [Compound 62, (R)-(3-aminopiperidin-1-yl)(2-(1-((3-fluoropyridin-2-yl)methyl)-1H-indol-2-yl)-3-methylimidazo[1,2-a]pyridin-7-yl)methanone] it is below 1000 nM. For the molecule `COc1ccc2cc(-c3nc4cc(C(=O)N5CCC[C@@H](N)C5)ccn4c3C)n(CC(F)F)c2c1` [Compound 83, (R)-(3-aminopiperidin-1-yl)(2-(1-(2,2-difluoroethyl)-6-methoxy-1H-indol-2-yl)-3-methylimidazo[1,2-a]pyridin-7-yl)methanone], the half-inhibitory concentration (IC50) was at most 1000 nM under setting [2] and below 1000 nM under setting [1]. `COc1ccc2cc(-c3nc4cc(C(=O)N5CCC[C@@H](N)C5)ccn4c3C)n(Cc3cccnc3)c2c1` [Compound 51, (R)-(3-aminopiperidin-1-yl) (2-(6-methoxy-1-(pyridin-3-ylmethyl)-1H-indol-2-yl)-3-methylimidazo[1,2-a]pyridin-7-yl)methanone]: the IC50 under setting [1] was below 1000 nM. Turning to `COc1ccc2cc(-c3nc4cc(C(=O)N5CCC[C@@H](N)C5)ccn4c3C)n(CC(C)C)c2c1` [Compound 82, (R)-(3-aminopiperidin-1-yl)(2-(1-isobutyl-6-methoxy-1H-indol-2-yl)-3-methylimidazo[1,2-a]pyridin-7-yl)methanone], the IC50 is, setting by setting: under setting [2], at most 1000 nM; under setting [1], below 1000 nM. Take `COc1ccc(Cn2c(-c3nc4cc(C(=O)N5CCC[C@@H](N)C5)ccn4c3C)cc3cc(F)ccc32)cc1` [Compound 75, (R)-(3-aminopiperidin-1-yl)(2-(5-fluoro-1-(4-methoxybenzyl)-1H-indol-2-yl)-3-methylimidazo[1,2-a]pyridin-7-yl)methanone]: under setting [1], the half-maximal inhibitory concentration (IC50) was below 1000 nM. Same read-out and setting: the figure for `Cc1c(-c2cc3ccccc3n2CC(F)F)nc2cc(C(=O)N3CCC[C@@H](N)C3)ccn12` [Compound 78, (R)-(3-aminopiperidin-1-yl)(2-(1-(2,2-difluoroethyl)-1H-indol-2-yl)-3-methylimidazo[1,2-a]pyridin-7-yl)methanone Trifluoroacetic Acid Salt] is below 1000 nM. `Cc1ncc(Cn2c(-c3nc4cc(C(=O)N5CCC[C@@H](N)C5)ccn4c3C)cc3ccccc32)s1` [Compound 49, (R)-(3-aminopiperidin-1-yl)(3-methyl-2-(1-((2-methylthiazol-5-yl)methyl)-1H-indol-2-yl)imidazo[1,2-a]pyridin-7-yl)methanone]: the half-inhibitory concentration (IC50) is at most 1000 nM under setting [2] and below 1000 nM under setting [1]. For the molecule `CCn1c(-c2nc3cc(C(=O)N4CCC[C@@H](N)C4)ccn3c2C)cc2ccc(F)cc21` [Compound 72, (R)-(3-aminopiperidin-1-yl)(2-(1-ethyl-6-fluoro-1H-indol-2-yl)-3-methylimidazo[1,2-a]pyridin-7-yl)methanone], the half-maximal inhibitory concentration (IC50) under setting [1] is below 1000 nM. On the same count and under the same terms, for `COc1cccc(Cn2c(-c3nc4cc(C(=O)N5CCC[C@@H](N)C5)ccn4c3C)cc3ccc(F)cc32)c1` [Compound 70, (R)-(3-aminopiperidin-1-yl)(2-(6-fluoro-1-(3-methoxybenzyl)-1H-indol-2-yl)-3-methylimidazo[1,2-a]pyridin-7-yl)methanone] the value was below 1000 nM.

Consider `Cc1c(-c2cc3cccc(Cl)c3n2CC2CC2)nc2cc(C(=O)N3CCC[C@@H](N)C3)ccn12` [Compound 44, (R)-(3-aminopiperidin-1-yl)(2-(7-chloro-1-(cyclopropylmethyl)-1H-indol-2-yl)-3-methylimidazo[1,2-a]pyridin-7-yl)methanone], for which the IC50 is, setting by setting: under setting [2], at most 1000 nM; under setting [1], below 1000 nM. The like results for `COc1cccc2cc(-c3nc4cc(C(=O)N5CCC[C@@H](N)C5)ccn4c3C)n(CC3CC3)c12` [Compound 47, (R)-(3-aminopiperidin-1-yl)(2-(1-(cyclopropylmethyl)-7-methoxy-1H-indol-2-yl)-3-methylimidazo[1,2-a]pyridin-7-yl)methanone] were, in that order, at most 1000 nM and below 1000 nM. The like results for `CCn1c(-c2nc3cc(C(=O)N4CCC[C@@H](N)C4)ccn3c2C)cc2ccccc21` [Compound 4, (R)-(3-Aminopiperidin-1-yl)(2-(1-ethyl-1H-indol-2-yl)-3-methylimidazo[1,2-a]pyridin-7-yl)methanone] were, in that order, at most 1000 nM and below 1000 nM. For the molecule `COc1ccc2cc(-c3nc4cc(C(=O)N5CCC[C@@H](N)C5)ccn4c3C)n(Cc3ccc(F)cc3)c2c1` [Compound 80, (R)-(3-aminopiperidin-1-yl)(2-(1-(4-fluorobenzyl)-6-methoxy-1H-indol-2-yl)-3-methylimidazo[1,2-a]pyridin-7-yl)methanone], the IC50 under setting [1] is below 1000 nM. In the case of `Cc1c(-c2cc3ccccc3n2Cc2ccc(F)cc2)nc2cc(C(=S)N3CCC[C@@H](N)C3)ccn12` [Compound 45, (R)-(3-aminopiperidin-1-yl)(2-(1-(4-fluorobenzyl)-1H-indol-2-yl)-3-methylimidazo[1,2-a]pyridin-7-yl)methanethione], the IC50 reads like this: under setting [2], at most 1000 nM; under setting [1], below 1000 nM. `COc1ccc(Cn2c(-c3nc4cc(C(=O)N5CCC[C@@H](N)C5)ccn4c3C)cc3ccc(F)cc32)cc1` [Compound 71, (R)-(3-aminopiperidin-1-yl)(2-(6-fluoro-1-(4-methoxybenzyl)-1H-indol-2-yl)-3-methylimidazo[1,2-a]pyridin-7-yl)methanone]: the IC50 under setting [1] is below 1000 nM.
